{
  "source": "patent US11993576B2",
  "about": "“N-benzyl-N-arylsulfonamide derivative and preparation and use thereof” (Hangzhou Yirui Pharmaceutical Technology Co., Ltd, priority 2019, dated 2024)",
  "molecular_target": "human Kv1.3 (Homo sapiens, UniProt P22001)",
  "sequence (P22001 whole entry)": "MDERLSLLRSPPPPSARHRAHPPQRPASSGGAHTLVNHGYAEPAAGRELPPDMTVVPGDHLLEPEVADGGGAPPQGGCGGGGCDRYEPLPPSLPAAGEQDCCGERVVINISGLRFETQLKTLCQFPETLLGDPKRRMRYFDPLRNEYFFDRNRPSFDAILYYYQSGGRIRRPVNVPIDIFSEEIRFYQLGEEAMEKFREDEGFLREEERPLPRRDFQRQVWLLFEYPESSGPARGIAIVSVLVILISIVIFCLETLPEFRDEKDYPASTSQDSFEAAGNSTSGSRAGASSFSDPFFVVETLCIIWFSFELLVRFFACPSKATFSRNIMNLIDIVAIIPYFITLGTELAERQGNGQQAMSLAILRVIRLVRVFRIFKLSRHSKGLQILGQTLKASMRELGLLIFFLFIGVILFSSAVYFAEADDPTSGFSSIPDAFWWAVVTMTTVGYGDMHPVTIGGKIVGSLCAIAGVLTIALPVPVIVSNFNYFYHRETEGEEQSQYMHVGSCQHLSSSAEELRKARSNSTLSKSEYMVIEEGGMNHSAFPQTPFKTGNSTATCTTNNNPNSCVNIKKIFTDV",
  "assay": "IonWorks automated patch clamp assay of inhibitory activity against Kv1.3",
  "assay_type": "cell-based",
  "details": "automated patch clamp method; CHO-K1 cells stably expressing human Kv1.3",
  "procedure,_shortened": "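CHO-K1 cells stably expressing human Kv1.3, perforated-patch IonWorks Quattro (amphotericin B 200 μg/mL internal), external solution pH 7.3. Compounds 0.00384-30 μM final, 0.3% DMSO, 600 s incubation; four 1 s pulses to 0 mV from −80 mV. Inhibition from peak current ratio after/before compound.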",
  "data": [
    {"smiles": "CC(C)CS(=O)(=O)N(Cc1ccc(F)cc1)c1ccc(N2CCN(C(=O)N(C)C)CC2)c(C#N)c1", "note": "[Compound 37, 4-(2-cyano-4-((N-(4-fluorobenzyl)-2-methylpropyl)sulfonamido)phenyl)-N,N-dimethylpiperazin-1-formamide]", "values": [
      {"measurement": "IC50", "result": 92, "unit": "nM"}
    ]}
  ]
}
